# Measurements taken from ChEMBL document CHEMBL3352710, “Endoperoxide polyketides from a Chinese Plakortis simplex: further evidence of the impact of stereochemistry on antimalarial activity of simple 1,2-dioxanes” (Bioorg Med Chem, 2014).
# Tests used:
# Plasmodium falciparum [1] = assay: Antimalarial activity against chloroquine-sensitive Plasmodium falciparum D10 after 72 hrs by lactate dehydrogenase assay; type: functional
# Plasmodium falciparum [2] = assay: Antimalarial activity against chloroquine-resistant Plasmodium falciparum W2 after 72 hrs by lactate dehydrogenase assay; type: functional, organism-based; settings: W2, 72 h
# [3] = Plasmodium falciparum, D10, 72 h, read-out: IC50
Compound,IC50 (Plasmodium falciparum [1]; [3]),IC50 (Plasmodium falciparum [2]),IC50 (Plasmodium falciparum [1])
CC/C=C/[C@H](CC)C[C@]1(CC)C=C(CC)[C@H](CC(=O)OC)OO1,3.89 µM,2.91 µM,
CCCC[C@H](CC)C[C@]1(CC)C=C(CC)[C@H](CC(=O)OC)OO1,4.05 µM,2.7 µM,
CCCC[C@H](C)C[C@]1(CC)C=C(CC)[C@H](CC(=O)OC)OO1,1.77 µM,1.56 µM,
CCCC[C@H](CC)C[C@@]1(CC)C[C@H](CC)[C@H](CC(=O)OC)OO1,6.18 µM,4.98 µM,
CCCC[C@H](CC)C[C@@]1(CC)C[C@H](CC)[C@@H](CC(=O)OC)OO1,,11.4 µM,Not Active
CCCCC(C)C[C@H](CC)C[C@@]1(C)C[C@H](CC)[C@@H](CC(=O)OC)OO1 (stereo not given in full),5.12 µM,4.1 µM,
CCCC[C@H](CC)C[C@@]1(C)C[C@@H](CC)[C@@H](CC(=O)OC)OO1,0.9 µM,0.43 µM,
C[C@@H]1CC[C@H]2[C@@H](C)C(=O)O[C@@H]3O[C@@]4(C)CC[C@@H]1[C@]32OO4 [ARTEMISININ],,0.009 µM,
